# Data taken from patent publication US5356923A, “1-hydroxy-4(3-cyclopentyloxy-4-methoxyphenyl)-2-pyrrolidone and anti-hypertensive use thereof” (Orion-yhtyma Oy, priority 1990, dated 1994).
# What was measured:
# PDE IV [1] = assay: Inhibition of PDE IV; type: biochemical; details: PDE isoenzymes isolated using DEAE-Sepharose chromatography
# Experimental: (§1) PDE isoenzymes were isolated using DEAE-Sepharose chromatography as described by Reeves et al. in Biochem. J., 241 (1987), pp. 535-541. PDE IV and PDE III activities were determined by the method of Alajoutsijarvi and Nissinen as described in Anal. Biochem. 165 (1987), pp. 128-132.
# PDE III [2] = biological target: T1, PDE III (Homo sapiens, UniProt Q14432); assay: Inhibition of PDE III; type: biochemical; details: PDE isoenzymes isolated using DEAE-Sepharose chromatography
# T1 construct: PDE isoenzymes were isolated using DEAE-Sepharose chromatography; from tissue; the cited Reeves et al. 1987 used human and guinea-pig cardiac ventricle (own knowledge)
# Experimental: as §1
# [3] = tested on: LTB4 synthesis in human basophilic leucocytes; assay: Inhibition of arachidonic acid induced LTB4 synthesis; type: cell-based; details: Leucocyte, HPLC, UV 271 nm
# Experimental: (§2) The inhibition of arachidonic acid induced LTB4 and LTC4 synthesis in human basophilic leucocytes was determined with liquid chromatography and UV detection. LTB4 and LTC4 were separated first by HPLC with a Spherisorb ODS colon (5 μm, 150×4.6 mm) and Spectroflow 400 Kratos Analytical pump. The flow rate was 1 ml/min and the solvents were methanol/water/acetic acid […], pH 5.0 for LTB4 and methanol/water/acetic acid/phosphoric acid (65/35/0.07/0.03), pH 5.5 for LTC4. The peaks were analyzed further with Spektroflow 773 Kratos Analytical UV absorbance detector and leukotrienes were detected at the wavelength of 271 nm and 280 nm for LTB4 and LTC4, respectively.
# [4] = tested on: LTC4 synthesis in human basophilic leucocytes; assay: Inhibition of arachidonic acid induced LTC4 synthesis; type: cell-based; details: Leucocyte, HPLC, UV 280 nm
# Experimental: as §2
# PDE III [5] = biological target: T1, PDE III; details: prior art compound, no test shown; cited from earlier work
# PDE IV [6] = details: prior art compound, no test shown; cited from earlier work
# T1 sequence (Q14432 whole entry): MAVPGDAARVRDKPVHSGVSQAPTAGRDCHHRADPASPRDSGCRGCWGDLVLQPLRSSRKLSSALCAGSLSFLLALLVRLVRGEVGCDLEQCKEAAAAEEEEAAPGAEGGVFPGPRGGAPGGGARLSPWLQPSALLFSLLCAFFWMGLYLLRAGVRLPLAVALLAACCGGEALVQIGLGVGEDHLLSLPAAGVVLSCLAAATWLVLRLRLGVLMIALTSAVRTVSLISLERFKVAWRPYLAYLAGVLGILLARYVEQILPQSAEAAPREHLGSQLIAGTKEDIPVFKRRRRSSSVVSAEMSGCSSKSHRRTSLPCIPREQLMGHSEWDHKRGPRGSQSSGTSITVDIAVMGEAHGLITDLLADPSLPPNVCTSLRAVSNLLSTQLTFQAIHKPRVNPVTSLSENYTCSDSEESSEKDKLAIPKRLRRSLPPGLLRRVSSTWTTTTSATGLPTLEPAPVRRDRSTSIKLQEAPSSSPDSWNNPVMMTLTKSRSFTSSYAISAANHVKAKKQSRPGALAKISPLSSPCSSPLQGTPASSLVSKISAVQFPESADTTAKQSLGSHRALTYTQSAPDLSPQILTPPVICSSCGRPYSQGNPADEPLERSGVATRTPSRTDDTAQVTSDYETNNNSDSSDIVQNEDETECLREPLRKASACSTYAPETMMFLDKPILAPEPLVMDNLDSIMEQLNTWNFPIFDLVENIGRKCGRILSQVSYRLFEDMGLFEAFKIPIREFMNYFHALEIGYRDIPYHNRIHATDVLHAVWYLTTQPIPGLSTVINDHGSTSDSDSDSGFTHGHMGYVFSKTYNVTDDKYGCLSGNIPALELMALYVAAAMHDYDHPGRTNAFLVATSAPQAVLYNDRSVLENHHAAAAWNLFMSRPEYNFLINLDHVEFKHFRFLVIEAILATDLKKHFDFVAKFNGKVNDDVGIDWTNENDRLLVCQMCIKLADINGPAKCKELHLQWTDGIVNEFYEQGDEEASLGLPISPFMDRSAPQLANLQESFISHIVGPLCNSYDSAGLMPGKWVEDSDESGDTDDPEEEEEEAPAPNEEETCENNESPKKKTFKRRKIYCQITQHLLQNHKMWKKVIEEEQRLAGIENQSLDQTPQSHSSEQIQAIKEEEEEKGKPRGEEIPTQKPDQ
SMILES,IC50 (PDE IV [1]) [µM],IC50 (PDE III [2]) [µM],IC50 [3] [µM],IC50 [4] [µM],inhibition of PDE III (in words) (PDE III [5]),PDE IV selectivity (in words) (PDE IV [6])
"COc1ccc(C2CC(=O)N(O)C2)cc1OC1CCCC1 (stereo not drawn) [Example 1, 1-Hydroxy-4-(3-cyclopentyloxy-4-methoxyphenyl)-2-pyrrolidone]",0.9,205,3.7,3.2,–,–
"COc1ccc(C2CNC(=O)C2)cc1OC1CCCC1 (stereo not drawn) [rolipram, 4-[3-(cyclopentyloxy)-4-methoxyphenyl]-2-pyrrolidone]",–,–,–,–,also inhibits PDE III,not selective PDE IV inhibitor
